The record followed here is patent US20220289698A1, “INHIBITORS OF HUMAN ATGL” (Karl-Franzens-Universität Graz, priority 2019, published 2022).

The nature of one data set: Stability in human serum. Particulars: 37° C., HPLC MS. Format: in vitro ADME. As for the experimental part: Inhibitors were incubated in human serum for 0 or 3 h at 37° C. and subsequently extracted with the MTBE method and analyzed via HPLC MS. Samples measured in triplicates.
A further data set concerns the target T1, hPNPLA9 (Homo sapiens, UniProt O60733).
T1 construct: made in house; host or cells: Expi cells (lysate)
T1 sequence (O60733 1-806): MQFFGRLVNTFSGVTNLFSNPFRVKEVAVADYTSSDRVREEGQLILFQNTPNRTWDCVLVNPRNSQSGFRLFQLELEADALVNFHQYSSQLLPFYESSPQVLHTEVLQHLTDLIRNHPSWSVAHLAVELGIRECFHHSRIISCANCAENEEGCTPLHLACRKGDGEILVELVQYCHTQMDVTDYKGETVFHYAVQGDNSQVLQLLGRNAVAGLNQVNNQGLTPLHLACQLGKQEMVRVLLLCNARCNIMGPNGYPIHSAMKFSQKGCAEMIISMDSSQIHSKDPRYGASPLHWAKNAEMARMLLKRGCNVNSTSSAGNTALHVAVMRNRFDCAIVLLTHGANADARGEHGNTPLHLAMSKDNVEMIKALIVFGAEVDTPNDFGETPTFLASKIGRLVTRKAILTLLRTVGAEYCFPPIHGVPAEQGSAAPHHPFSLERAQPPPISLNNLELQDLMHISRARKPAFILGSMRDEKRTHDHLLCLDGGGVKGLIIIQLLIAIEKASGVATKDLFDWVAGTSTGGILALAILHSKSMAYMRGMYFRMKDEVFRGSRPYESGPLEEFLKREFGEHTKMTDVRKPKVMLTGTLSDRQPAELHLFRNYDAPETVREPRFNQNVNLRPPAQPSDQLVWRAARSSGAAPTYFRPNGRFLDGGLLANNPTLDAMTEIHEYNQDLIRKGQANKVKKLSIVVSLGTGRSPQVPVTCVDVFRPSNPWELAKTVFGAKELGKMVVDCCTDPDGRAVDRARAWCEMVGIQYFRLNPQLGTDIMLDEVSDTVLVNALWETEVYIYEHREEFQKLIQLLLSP
Nature of the data set: hPNPLA9 off-target inhibition. The conditions noted are these: read-out: hPNPLA9 off-target inhibition [% inhibition at 100 μM]. Format: biochemical. As for the experimental part:
Expi lysates expressing hPNPLA9 were treated with 100 μM Inhibitors and incubated with 1 mM C8 monoacylglycerol substrate (containing 5 mM CHAPS, 50 mM NaPh buffer ph7.4, 0.15 M NaCl) for 40 min. Glycerol release was determined via Free glycerol reagent (Sigma Aldrich). Samples measured in triplicates, […]

A further data set has as its system pig vWAT. Put plainly: Pig vWAT inhibition, visceral adipose tissue lysates + CGI-58. It counts as biochemical. As to the method: Lysates from visceral adipose tissue of pigs (Sus scrofa) were incubated with recombinant purified ATGL co-activator CGI-58 and ATGL inhibitors at 50 μM. Subsequently, substrate containing radiolabeled triolein was added and liberated FA were extracted and quantified by liquid scintillation. Inhibitors were dissolved in DMSO which was used as control. Samples were measured in triplicates.

The next data set addresses T2, hPNPLA6 (Homo sapiens, UniProt Q8IY17).
T2 construct: made in house; host or cells: Expi cells (lysate)
T2 sequence (Q8IY17 1-1375): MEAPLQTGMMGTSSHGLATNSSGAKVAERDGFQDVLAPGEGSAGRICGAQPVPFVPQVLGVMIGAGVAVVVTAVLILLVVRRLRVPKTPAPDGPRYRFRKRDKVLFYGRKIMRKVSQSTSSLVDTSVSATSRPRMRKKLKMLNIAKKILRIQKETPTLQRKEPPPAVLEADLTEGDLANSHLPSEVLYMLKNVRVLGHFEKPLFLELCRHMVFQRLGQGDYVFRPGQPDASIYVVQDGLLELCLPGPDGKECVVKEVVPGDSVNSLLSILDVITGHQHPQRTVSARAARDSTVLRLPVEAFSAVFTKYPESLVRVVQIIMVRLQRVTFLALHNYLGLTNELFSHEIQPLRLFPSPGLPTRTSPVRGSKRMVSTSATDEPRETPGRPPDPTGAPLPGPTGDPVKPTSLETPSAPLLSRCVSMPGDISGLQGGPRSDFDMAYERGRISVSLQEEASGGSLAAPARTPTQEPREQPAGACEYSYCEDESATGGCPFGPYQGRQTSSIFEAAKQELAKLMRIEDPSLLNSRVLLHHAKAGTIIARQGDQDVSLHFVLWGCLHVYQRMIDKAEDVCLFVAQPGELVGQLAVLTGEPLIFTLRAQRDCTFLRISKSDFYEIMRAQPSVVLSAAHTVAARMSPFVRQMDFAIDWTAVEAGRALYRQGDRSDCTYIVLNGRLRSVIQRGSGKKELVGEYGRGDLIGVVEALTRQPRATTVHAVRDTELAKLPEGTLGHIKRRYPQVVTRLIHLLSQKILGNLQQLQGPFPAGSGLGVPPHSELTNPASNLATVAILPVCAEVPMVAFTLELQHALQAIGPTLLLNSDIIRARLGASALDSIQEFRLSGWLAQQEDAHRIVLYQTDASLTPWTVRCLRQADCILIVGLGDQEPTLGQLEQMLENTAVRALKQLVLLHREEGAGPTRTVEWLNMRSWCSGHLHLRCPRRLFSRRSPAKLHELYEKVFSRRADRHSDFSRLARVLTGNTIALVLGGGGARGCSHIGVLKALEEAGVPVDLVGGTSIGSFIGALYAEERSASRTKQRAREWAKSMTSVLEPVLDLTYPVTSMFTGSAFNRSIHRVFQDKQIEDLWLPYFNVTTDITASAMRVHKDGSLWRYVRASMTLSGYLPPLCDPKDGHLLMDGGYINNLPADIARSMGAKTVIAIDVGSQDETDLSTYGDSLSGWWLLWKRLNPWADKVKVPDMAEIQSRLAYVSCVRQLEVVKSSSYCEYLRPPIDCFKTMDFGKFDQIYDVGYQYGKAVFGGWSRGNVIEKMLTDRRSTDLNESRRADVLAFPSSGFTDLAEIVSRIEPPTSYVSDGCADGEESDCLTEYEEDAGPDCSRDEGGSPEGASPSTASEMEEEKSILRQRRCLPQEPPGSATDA
Nature of the data set: hPNPLA6 off-target inhibition. It counts as biochemical. The conditions noted are these: read-out: hPNPLA6 off-target inhibition [% inhibition at 100 μM]. As for the experimental part: Expi lysates expressing hPNPLA6 were treated with 100 μM Inhibitors and incubated with 1 mM C8 monoacylglycerol substrate (containing 5 mM CHAPS, 50 mM NaPh buffer ph7.4, 0.15 M NaCl) for 40 min, Glycerol release was determined via Free glycerol reagent (Sigma Aldrich). Samples measured in triplicates.

Usually inhibition stands for the change of the read-out against control, counted positive when it falls. With `CCOc1ccc(-c2cc(OC)cc(C(=O)OC(C)C)n2)cc1` [Example 35], the “Stability in human serum [% rest after 3 h incubation]” value in “Stability in human serum” was 75%. Further, the inhibition at 100 µM on hPNPLA9 is 0%.

As to `CCOc1ccc(-c2nc(C(=O)OCc3cccs3)cs2)cc1` [Example 152, Thiophen-2-ylmethyl 2-(4-ethoxyphenyl)thiazole-4-carboxylate], the “Stability in human serum [% rest after 3 h incubation]” value in the data set “Stability in human serum” was determined as 80%. Besides, the “pig vWAT inhibition [% inhibition at 50 μM” value in the data set with pig vWAT worked out at 0%. Besides, the inhibition at 100 µM on hPNPLA9 and at hPNPLA6 was 0% in each case.

For `CCOc1ccc(-c2cccc(C(=O)OCc3cccs3)n2)cc1` [Example 189, Thiophen-2-ylmethyl 6-(4-ethoxyphenyl)picolinate], in the data set “Stability in human serum”, the “Stability in human serum [% rest after 3 h incubation]” value is recorded as 25%. Besides, the “pig vWAT inhibition [% inhibition at 50 μM” value with pig vWAT came out at 15%. In addition, the inhibition at 100 µM on hPNPLA9 and on hPNPLA6 was 0% in each case.

Take `CCOc1ccc(-c2cccc(C(=O)OCc3ccco3)n2)cc1` [Example 190, Furan-2-ylmethyl 6-(4-ethoxyphenyl)picolinate]: the “Stability in human serum [% rest after 3 h incubation]” value in the data set “Stability in human serum” was found to be 0%. The “pig vWAT inhibition [% inhibition at 50 μM” value with pig vWAT came out at 0%. Moreover, the inhibition at 100 µM at hPNPLA9 and on hPNPLA6 was 0% in each case.

On to `COc1cc(C(=O)OC(C)C)nc(-c2ccc(OC(C)C)cc2)c1` [Example 201, Isopropyl 6-(4-isopropoxyphenyl)-4-methoxypicolinate], for which the “Stability in human serum [% rest after 3 h incubation]” value in “Stability in human serum” is 100%. Also, the “pig vWAT inhibition [% inhibition at 50 μM” value in the data set with pig vWAT came to 0%. Moreover, the inhibition at 100 µM at hPNPLA9 and at hPNPLA6 was 0% each time.

Regarding `CC#CCOC(=O)c1csc(-c2ccc(OCC)cc2)n1` [Example 209, But-2-yn-1-yl 2-(4-ethoxyphenyl)thiazole-4-carboxylate], in the data set “Stability in human serum”, the “Stability in human serum [% rest after 3 h incubation]” value is 75%. Moreover, in the data set with pig vWAT, the “pig vWAT inhibition [% inhibition at 50 μM” value stood at 0%. The inhibition at 100 µM on hPNPLA9 and on hPNPLA6 was 0% throughout.

Regarding `C#C[C@H](C)OC(=O)c1csc(-c2ccc(OCC)cc2)n1` [Example 210, (S)-But-3-yn-2-yl 2-(4-ethoxyphenyl)thiazole-4-carboxylate], the “Stability in human serum [% rest after 3 h incubation]” value in “Stability in human serum” was 100%. The “pig vWAT inhibition [% inhibition at 50 μM” value in the data set with pig vWAT is 5%. Moreover, the inhibition at 100 µM at hPNPLA9 and on hPNPLA6 was 0% in each case.

Consider `C#C[C@@H](C)OC(=O)c1csc(-c2ccc(OCC)cc2)n1` [Example 211, (R)-But-3-yn-2-yl 2-(4-ethoxyphenyl)thiazole-4-carboxylate], for which the “Stability in human serum [% rest after 3 h incubation]” value in the data set “Stability in human serum” is given as 90%. Moreover, in the data set on pig vWAT, the “pig vWAT inhibition [% inhibition at 50 μM” value is on record as 5%. Moreover, the inhibition at 100 µM on hPNPLA9 and at hPNPLA6 was 0% throughout.

Take `CCCCOC(=O)c1csc(-c2ccc(OCC)cc2)n1` [Example 212, Butyl 2-(4-ethoxyphenyl)thiazole-4-carboxylate]: in the data set “Stability in human serum”, the “Stability in human serum [% rest after 3 h incubation]” value is 50%. The “pig vWAT inhibition [% inhibition at 50 μM” value in the data set on pig vWAT was 5%. Further, the inhibition at 100 µM at hPNPLA9 and on hPNPLA6 was 0% in each case.

With `CCOc1ccc(-c2nc(C(=O)OCc3ccsc3)cs2)cc1` [Example 215, Thiophen-3-ylmethyl 2-(4-ethoxyphenyl)thiazole-4-carboxylate], in the data set “Stability in human serum”, the “Stability in human serum [% rest after 3 h incubation]” value came out at 80%. The “pig vWAT inhibition [% inhibition at 50 μM” value in the data set with pig vWAT was found to be 15%. For the same compound, the inhibition at 100 µM on hPNPLA9 and at hPNPLA6 was 0% each time.

In the case of `CCOc1ccc(-c2nc(C(=O)OCc3ccoc3)cs2)cc1` [Example 216, Furan-3-ylmethyl 2-(4-ethoxyphenyl)thiazole-4-carboxylate], in “Stability in human serum”, the “Stability in human serum [% rest after 3 h incubation]” value is 60%. Also, the “pig vWAT inhibition [% inhibition at 50 μM” value with pig vWAT is on record as 15%. Further, the inhibition at 100 µM at hPNPLA9 and at hPNPLA6 was 0% each time.

As for `CCOc1ccc(-c2nc(C(=O)OCc3ccc(Cl)s3)cs2)cc1` [Example 223, (5-Chlorothiophen-2-yl)methyl 2-(4-ethoxyphenyl)thiazole-4-carboxylate], the “Stability in human serum [% rest after 3 h incubation]” value in the data set “Stability in human serum” was found to be 80%. Moreover, the “pig vWAT inhibition [% inhibition at 50 μM” value with pig vWAT is listed as 15%. Further, the inhibition at 100 µM on hPNPLA9 and at hPNPLA6 was 0% each time.

With `CCOc1ccc(-c2nc(C(=O)OCc3ccc(Br)s3)cs2)cc1` [Example 224, (5-Bromothiophen-2-yl)methyl 2-(4-ethoxyphenyl)thiazole-4-carboxylate], the “pig vWAT inhibition [% inhibition at 50 μM” value in the data set with pig vWAT came to 15%. Moreover, the inhibition at 100 µM at hPNPLA9 and on hPNPLA6 was 0% throughout.
